Experimental data: patent US11408885B2, “Compositions and multiplex assays for characterizing active proteases and their inhibitors” (Massachusetts Institute of Technology, priority 2017, dated 2022)

Tests used:
MMP7 = target: T1, MMP7 (Homo sapiens, UniProt P09237); assay: FRET substrate cleavage by recombinant MMP, inhibition by activity-based probe; type: biochemical; set-up: The recombinant catalytic domains of human MMPs 7 and 9 were purchased from Enzo Life Sciences, and of MMP 12 from Anaspec; purchased Enzo Life Sciences; conditions: FRET substrate PEPDAB008 10 μM, read-out: IC50, inhibition of substrate cleavage of active MMP
T1 sequence (P09237 95-267): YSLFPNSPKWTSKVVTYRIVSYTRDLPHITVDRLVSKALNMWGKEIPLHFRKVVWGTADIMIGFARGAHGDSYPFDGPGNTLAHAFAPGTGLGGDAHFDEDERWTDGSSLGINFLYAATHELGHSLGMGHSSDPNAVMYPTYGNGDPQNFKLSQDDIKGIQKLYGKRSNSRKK
Description: (§1) The binding of an activity-based probe, e.g., HxBP-Bt, to the active site of an MMP (as shown in FIG. 1A) would effectively reduce (or inhibit) the ability of such MMP to cleave its substrate. […] This correlation should also provide an IC50 value to measure the sensitivity/potency of the MAMBI system to bind, and thereby quantify, active MMPs. […] Fluorescence resonance energy transfer (FRET) technique is used to determine if a substrate is cleaved by pre-labeling two parts of a substrate molecule with a donor chromophore and an acceptor chromophore, respectively, and measuring the energy transfer efficiency from the donor to the acceptor chromophore to determine if two fluorophores are within a certain distance of each other, i.e. the substrate is intact and uncleaved. […] The fluorescence was monitored by plate reader. In general, readings measured fluorescence every 20 minutes for roughly five hours and the reported rate of increase in fluorescence was calculated from fitting a linear portion of this increase including at least 4 data points and subtracting the average increase in background, protease-free conditions. […] Reaction velocities were calculated from linear reaction periods from raw fluorescence value time courses. […] Relative rates of FRET substrate cleavage among samples with the addition of HxBP-Bt were quantified and compared with the rates without HxBP-Bt. […]

MMP9 = MMP9 (Homo sapiens, UniProt P14780); assay: as above; type: biochemical; set-up: The recombinant catalytic domains of human MMPs 7 and 9 were purchased from Enzo Life Sciences, and of MMP 12 from Anaspec; purchased Enzo Life Sciences; conditions: FRET substrate PEPDAB011 10 μM, read-out: IC50, inhibition of substrate cleavage of active MMP
MMP9, sequence (P14780 107-449 limits assumed): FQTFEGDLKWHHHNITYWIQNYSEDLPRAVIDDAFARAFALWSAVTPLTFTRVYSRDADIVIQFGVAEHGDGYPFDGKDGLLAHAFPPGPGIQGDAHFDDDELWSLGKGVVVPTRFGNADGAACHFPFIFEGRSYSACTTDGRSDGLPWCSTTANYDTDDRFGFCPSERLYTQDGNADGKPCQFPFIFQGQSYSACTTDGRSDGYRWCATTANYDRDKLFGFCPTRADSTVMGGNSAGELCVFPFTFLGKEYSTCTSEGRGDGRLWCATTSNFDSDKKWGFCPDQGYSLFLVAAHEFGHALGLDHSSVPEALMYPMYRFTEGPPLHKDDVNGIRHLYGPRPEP
Description: as §1

MMP13 = MMP13 (Homo sapiens, UniProt P45452); assay: as above; type: biochemical; conditions: FRET substrate PEPDAB008 10 μM, read-out: IC50, inhibition of substrate cleavage of active MMP
Description: (§2) The binding of an activity-based probe, e.g., HxBP-Bt, to the active site of an MMP (as shown in FIG. 1A) would effectively reduce (or inhibit) the ability of such MMP to cleave its substrate. […] This correlation should also provide an IC50 value to measure the sensitivity/potency of the MAMBI system to bind, and thereby quantify, active MMPs. […] Fluorescence resonance energy transfer (FRET) technique is used to determine if a substrate is cleaved by pre-labeling two parts of a substrate molecule with a donor chromophore and an acceptor chromophore, respectively, and measuring the energy transfer efficiency from the donor to the acceptor chromophore to determine if two fluorophores are within a certain distance of each other, i.e. the substrate is intact and uncleaved. Here, HxBP-Bt bound MMP samples were mixed with chromophore-labeled substrate peptides in 384-well OptiPlates® at 37° C. using timelapse fluorimetry in the Spectromax® M3 and M2e fluorimeters (Molecular Devices). The fluorescence was monitored by plate reader. In general, readings measured fluorescence every 20 minutes for roughly five hours and the reported rate of increase in fluorescence was calculated from fitting a linear portion of this increase including at least 4 data points and subtracting the average increase in background, protease-free conditions. […] Reaction velocities were calculated from linear reaction periods from raw fluorescence value time courses. […] Relative rates of FRET substrate cleavage among samples with the addition of HxBP-Bt were quantified and compared with the rates without HxBP-Bt. Activities of recombinant MMPs 1, 7, 8, 12 and 13, in the presence or absence of HxBP-Bt probe, were characterized with […]008 (Dabcyl-[…]); MMPs 2 and 9 with […]011 (Dabcyl-[…]) and MMPs 3 and 10 with […]052 (Dabcyl-[…]). […] These IC50 values were used to estimate binding off-rates in the computational model. IC50 of the inhibitor was calculated by fitting the resulting dose-dependent data with the PRISM software (GraphPad, USA)

MMP10 = MMP10 (Homo sapiens, UniProt P09238); assay: as above; type: biochemical; conditions: FRET substrate PEPDAB052 10 μM, read-out: IC50, inhibition of substrate cleavage of active MMP
MMP10, sequence (P09238 99-476): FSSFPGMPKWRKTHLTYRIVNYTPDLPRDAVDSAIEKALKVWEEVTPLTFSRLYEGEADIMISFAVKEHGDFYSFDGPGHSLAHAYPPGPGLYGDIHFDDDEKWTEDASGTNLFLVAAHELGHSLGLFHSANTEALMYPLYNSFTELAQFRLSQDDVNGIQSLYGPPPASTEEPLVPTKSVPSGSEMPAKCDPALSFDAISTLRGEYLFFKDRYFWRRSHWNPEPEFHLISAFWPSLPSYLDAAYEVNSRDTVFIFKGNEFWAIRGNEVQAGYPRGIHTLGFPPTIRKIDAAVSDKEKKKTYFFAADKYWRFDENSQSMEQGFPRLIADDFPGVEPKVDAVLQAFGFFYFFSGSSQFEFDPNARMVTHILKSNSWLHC
Description: as §2

MMP8 = MMP8 (Homo sapiens, UniProt P22894); assay: as above; type: biochemical; conditions: FRET substrate PEPDAB008 10 μM, read-out: IC50, inhibition of substrate cleavage of active MMP
MMP8, sequence (P22894 101-467, species assumed): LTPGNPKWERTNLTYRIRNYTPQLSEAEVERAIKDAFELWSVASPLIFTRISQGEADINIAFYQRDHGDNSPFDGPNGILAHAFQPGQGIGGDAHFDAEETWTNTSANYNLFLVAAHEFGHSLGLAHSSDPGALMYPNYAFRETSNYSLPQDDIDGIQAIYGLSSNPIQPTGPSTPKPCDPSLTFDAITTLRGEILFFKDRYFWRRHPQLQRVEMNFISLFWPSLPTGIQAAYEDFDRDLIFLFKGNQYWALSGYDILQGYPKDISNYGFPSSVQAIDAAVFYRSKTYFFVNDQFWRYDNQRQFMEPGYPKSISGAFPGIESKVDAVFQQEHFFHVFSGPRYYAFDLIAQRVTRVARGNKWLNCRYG
Description: as §2

[1] = tested on: aggregate metalloprotease activity of conditioned medium; assay: FRET substrate cleavage in conditioned media of cell cultures; type: biochemical, human
Protocol: Eight conditioned mediums were assayed, each tested in two complete biological replicates (n=2), from these cell cultures: four endometrial related cell populations including (1) primary endometrial stromal cells (pESC), (2) telomerase-immortalized human endometrial stromal cells (tHESC) (Krikun et al., Endocrinology, 145(5):2291-6 (2004)), (3) an adenocarcinoma endometrial epithelial cell line, Ishikawa, and (4) an epithelial line derived from an endometriosis lesion, 12z; three canonical cancer cell lines including (5) A549, (6) […], and (7) HT1080; as well as (8) human telomerase reverse transcriptase (hTERT) immortalized mesenchymal stem cell line (MSC).
Conditioned supernatant was prepared: collected at 12 h, spun down at 200 g for 5 min to remove debris, and immediately flash-frozen. For FRET-substrate assays involving this supernatant, final reactions were composed of a 2:1:1 mixture of […] substrate diluted from 5 mMDMSO stock into phosphate buffered saline, 4 nM active MMP7 diluted in ‘MMP buffer’, and thawed supernatant.
Validation of HxBP-Bt probe binding to the active sites of proteases in conditioned media was performed based on the FRET-based study as described in Example 1, without the addition of MMP capture beads. […]

With CC(C)CC(C(=O)NC(Cc1ccc(C(=O)c2ccccc2)cc1)C(=O)NCCOCCOCCOCC(=O)NCC(C)(C)SSC(C)(C)CNC(=O)CCCCC1SCC2NC(=O)NC21)C(O)C(=O)NO (stereo not shown) [HxBP-Bt, biotin-tagged hydroxamate benzophenone (HxBP-Bt) probe] the IC50 (MMP7) was 9.2 nM, the IC50 (MMP9) was 2.7 nM and the IC50 (MMP13) was 2.3 nM. The IC50 (MMP10) was 29 nM, the IC50 (MMP8) was 2.4 nM and the “effect on substrate cleavage (bulk protease activity)” value ([1]; eight conditioned media normalized to 1000 μg/mL, 500 nM HxBP-Bt) was “greatly deceased the substrate cleavage ability”. For the same compound, the “effect on substrate cleavage (bulk protease activity)” value ([1]; eight conditioned media, 1500 nM HxBP-Bt, in some cases) was “further decreased the protease activities”.
